Bounds are passed on as bounds.

This test deals with Mouse ERK2 protein (Mus musculus (Mouse), UniProt P63085). Kind of test: Coupled MEK1/ERK2 IMAP assay or Active ERK2 IMAP assay. The note with it: Table 1, class symbols, 30 μM ATP. The format is biochemical.
Sequence of Mouse ERK2 protein (P63085 whole entry): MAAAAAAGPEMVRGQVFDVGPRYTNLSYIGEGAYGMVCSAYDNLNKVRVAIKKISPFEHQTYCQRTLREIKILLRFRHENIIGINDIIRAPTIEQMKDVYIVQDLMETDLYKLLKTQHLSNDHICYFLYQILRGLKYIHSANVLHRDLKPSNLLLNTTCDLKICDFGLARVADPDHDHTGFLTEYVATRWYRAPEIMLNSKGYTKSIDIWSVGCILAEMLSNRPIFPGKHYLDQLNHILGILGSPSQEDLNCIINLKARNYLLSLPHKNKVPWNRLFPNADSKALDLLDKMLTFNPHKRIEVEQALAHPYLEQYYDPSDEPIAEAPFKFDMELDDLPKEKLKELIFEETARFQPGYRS

Broadly, the IC50 is the concentration that inhibits the measured activity by half. Read a low IC50 as higher potency. Turning to `O=C(NC1CC(O)CN(Cc2ccccc2Cl)C1)N1CCc2[nH]nc(-c3ccncc3)c2C1` (stereo not drawn) [Compound 114, N-[1-[(2-chlorophenyl)-methyl]-5-hydroxy-3-piperidinyl]-1,4,6,7-tetrahydro-3-(4-pyridinyl)-5H-pyrazolo[4,3-c]pyridine-5-carboxamide], the IC50 was < 20 nM. `Cc1cc(-c2n[nH]c3c2CN(C(=O)N[C@@H]2CCN(Cc4c(F)cccc4F)C2)CC3)ccn1` [Compound 115, N-[1-[(2,6-difluorophenyl)-methyl]-3(R)-pyrrolidinyl]-1,4,6,7-tetrahydro-3-(2-methyl-4-pyridinyl)-5H-pyrazolo[4,3-c]pyridine-5-carboxamide] showed an IC50 of 101 to 1000 nM.

Compound `COc1cccc(F)c1CN1CC[C@@H](NC(=O)N2CCc3[nH]nc(-c4ccnc(C)c4)c3C2)C1` [Compound 116, N-[1-[(2-fluoro-6-methoxyphenyl)methyl]-3(R)-pyrrolidinyl]-1,4,6,7-tetrahydro-3-(2-methyl-4-pyridinyl)-5H-pyrazolo[4,3-c]pyridine-5-carboxamide] displayed an IC50 of 21 to 100 nM. `Cc1cc(-c2n[nH]c3c2CN(C(=O)N[C@@H]2CCN(Cc4c(F)cccc4Cl)C2)CC3)ccn1` [Compound 117, N-[1-[(2-chloro-6-fluorophenyl)methyl]-3(R)-pyrrolidinyl]-1,4,6,7-tetrahydro-3-(2-methyl-4-pyridinyl)-5H-pyrazolo[4,3-c]pyridine-5-carboxamide] came in with a half-inhibitory concentration (IC50) of 21 to 100 nM. In the case of `Cc1cc(-c2n[nH]c3c2CN(C(=O)N[C@@H]2CCN(Cc4ccccc4Cl)C2)CC3)ccn1` [Compound 118, N-[1-[(2-chlorophenyl)-methyl]-3(R)-pyrrolidinyl]-1,4,6,7-tetrahydro-3-(2-methyl-4-pyridinyl)-5H-pyrazolo[4,3-c]pyridine-5-carboxamide], the IC50 lay within 21 to 100 nM. In turn, `Cc1cc(-c2n[nH]c3c2CN(C(=O)N[C@@H]2CCN(Cc4c(C)cccc4C)C2)CC3)ccn1` [Compound 119, N-[1-[(2,6-dimethylphenyl)-methyl]-3(R)-pyrrolidinyl]-1,4,6,7-tetrahydro-3-(2-methyl-4-pyridinyl)-5H-pyrazolo[4,3-c]pyridine-5-carboxamide] returned an IC50 of 21 to 100 nM. To `Cc1cc(-c2n[nH]c3c2CN(C(=O)N[C@@H]2CCN(Cc4csc5ccccc45)C2)CC3)ccn1` [Compound 120, N-[1-(benzo[b]thien-3-ylmethyl)-3(R)-pyrrolidinyl]-1,4,6,7-tetrahydro-3-(2-methyl-4-pyridinyl)-5H-pyrazolo[4,3-c]pyridine-5-carboxamide] belongs < 20 nM; to `COc1cccc(F)c1CN1CC(NC(=O)N2CCc3[nH]nc(-c4ccnc(C)c4)c3C2)CCC1C` (stereo not drawn) [Compound 121, N-[1-[(2-fluoro-6-methoxyphenyl)methyl]-6-methyl-3-piperidinyl]-1,4,6,7-tetrahydro-3-(2-methyl-4-pyridinyl)-5H-pyrazolo[4,3-c]pyridine-5-carboxamide], 21 to 100 nM. As for `COc1cccc(F)c1CN1CCCC(NC(=O)N2CCc3[nH]nc(-c4ccnc(C)c4)c3C2)C1C` (stereo not drawn) [Compound 122, N-[1-[(2-fluoro-6-methoxyphenyl)methyl]-2-methyl-3-piperidinyl]-1,4,6,7-tetrahydro-3-(2-methyl-4-pyridinyl)-5H-pyrazolo[4,3-c]pyridine-5-carboxamide], the IC50 lay in the range of 101 to 1000 nM. To `COc1ccc(-c2n[nH]c3c2CN(C(=O)N[C@@H]2CCCN(Cc4c(C)cccc4C)C2)CC3)cc1F` [Compound 124, N-[1-[(2,6-dimethylphenyl)-methyl]-3(R)-piperidinyl]-3-(3-fluoro-4-methoxyphenyl)-1,4,6,7-tetrahydro-5H-pyrazolo[4,3-c]pyridine-5-carboxamide] belongs 21 to 100 nM. `COc1ccc(-c2n[nH]c3c2CN(C(=O)N[C@@H]2CCCN(Cc4c(C)cccc4C)C2)CC3)cn1` [Compound 125, N-[1-[(2,6-dimethylphenyl)-methyl]-3(R)-piperidinyl]-1,4,6,7-tetrahydro-3-(6-Methoxy-3-pyridinyl)-5H-pyrazolo[4,3-c]pyridine-5-carboxamide] returned an IC50 of 21 to 100 nM. Regarding `Cc1cccc(C)c1CN1CCC[C@@H](NC(=O)N2CCc3[nH]nc(-c4ccc5nn(C)cc5c4)c3C2)C1` [Compound 126, N-[1-[(2,6-dimethylphenyl)-methyl]-3(R)-piperidinyl]-1,4,6,7-tetrahydro-3-(2-methyl-2H-indazol-5-yl)-5H-pyrazolo[4,3-c]pyridine-5-carboxamide], the half-inhibitory concentration (IC50) was < 20 nM. To `Cc1cccc(C)c1CN1CCC[C@@H](NC(=O)N2CCc3[nH]nc(-c4ccc5c(cnn5C)c4)c3C2)C1` [Compound 127, N-[1-[(2,6-dimethylphenyl)-methyl]-3(R)-piperidinyl]-1,4,6,7-tetrahydro-3-(1-methyl-1H-inclazol-5-yl)-5H-pyrazolo[4,3-c]pyridine-5-carboxamide] belongs < 20 nM; to `O=C(N[C@@H]1CCN(Cc2csc3ccccc23)C1)N1CCc2[nH]nc(-c3ccc(-c4ccccc4)nc3)c2C1` [Compound 129, N-[1-(benzo[b]thien-3-ylmethyl)-3(R)-pyrrolidinyl]-1,4,6,7-tetrahydro-3-(6-phenyl-3-pyridinyl)-5H-pyrazolo[4,3-c]pyridine-5-carboxamide], 101 to 1000 nM; to `O=C(N[C@@H]1CCCN(Cc2c(F)cccc2F)C1)N1CCc2[nH]nc(-c3ccc4ncccc4c3)c2C1` [Compound 130, N-[1-[(2,6-difluorophenyl)-methyl]-3(R)-piperidinyl]-1,4,6,7-tetrahydro-3-(6-quinolinyl)-5H-pyrazolo[4,3-c]pyridine-5-carboxamide], 21 to 100 nM.

`COc1ccc(-c2n[nH]c3c2CN(C(=O)N[C@@H]2CCCN(Cc4c(F)cccc4F)C2)CC3)cc1F` [Compound 131, N-[1-[(2,6-difluorophenyl)-methyl]-3(R)-piperidinyl]-3-(3-fluoro-4-methoxyphenyl)-1,4,6,7-tetrahydro-5H-pyrazolo[4,3-c]pyridine-5-carboxamide] registered an IC50 of 21 to 100 nM.

Regarding `COc1ccc(-c2n[nH]c3c2CN(C(=O)N[C@@H]2CCCN(Cc4c(F)cccc4F)C2)CC3)cn1` [Compound 132, N-[1-[(2,6-difluorophenyl)-methyl]-3(R)-piperidinyl]-1,4,6,7-tetrahydro-3-(6-Methoxy-3-pyridinyl)-5H-pyrazolo[4,3-c]pyridine-5-carboxamide], the IC50 was 21 to 100 nM. The compound `Cn1cc2cc(-c3n[nH]c4c3CN(C(=O)N[C@@H]3CCCN(Cc5c(F)cccc5F)C3)CC4)ccc2n1` [Compound 133, N[1-[(2,6-difluorophenyl)-methyl]-3(R)-piperidinyl]-1,4,6,7-tetrahydro-3-(2-methyl-2H-indazol-5-yl)-5H-pyrazolo[4,3-c]pyridine-5-carboxamide] registered an IC50 of 21 to 100 nM. Turning to `Cn1ncc2cc(-c3n[nH]c4c3CN(C(=O)N[C@@H]3CCCN(Cc5c(F)cccc5F)C3)CC4)ccc21` [Compound 134, N-[1-[(2,6-difluorophenyl)-methyl]-3(R)-piperidinyl]-1,4,6,7-tetrahydro-3-(1-methyl-1H-indazol-5-yl)-5H-pyrazolo[4,3-c]pyridine-5-carboxamide], the IC50 lay within 21 to 100 nM. Take `COc1cccc(F)c1CN1CCC(F)C(NC(=O)N2CCc3[nH]nc(-c4ccnc(C)c4)c3C2)C1` (stereo not drawn) [Compound 135, N-[4-fluoro-1-[(2-fluoro-6-methoxyphenyl)methyl]-3-piperidinyl]-1,4,6,7-tetrahydro-3-(2-methyl-4-pyridinyl)-5H-pyrazolo[4,3-c]pyridine-5-carboxamide]: the IC50 was < 20 nM. With `O=C(N[C@@H]1CCCN(Cc2csc3ccccc23)C1)N1CCc2[nH]nc(-c3ccc(-c4ccccc4)nc3)c2C1` [Compound 136, N-[1-(benzo[b]thien-3-ylmethyl)-3(R)-piperidinyl]-1,4,6,7-tetrahydro-3-(6-phenyl-3-pyridinyl)-5H-pyrazolo[4,3-c]pyridine-5-carboxamide], the IC50 lay within 101 to 1000 nM. As for `O=C(N[C@@H]1CCCN(Cc2c(F)cccc2F)C1)N1CCc2[nH]nc(-c3ccc(-c4ccccc4)nc3)c2C1` [Compound 137, N-[1-[(2,6-difluorophenyl)-methyl]-3(R)-piperidinyl]-1,4,6,7-tetrahydro-3-(6-phenyl-3-pyridinyl)-5H-pyrazolo[4,3-c]pyridine-5-carboxamide], the concentration for half-maximal inhibition (IC50) was in the range of 101 to 1000 nM. In the case of `COc1cccc(F)c1CN1CCC[C@@H](NC(=O)N2CCc3[nH]nc(-c4ccc(-c5ccccc5)nc4)c3C2)C1` [Compound 138, N-[1-[(2-fluoro-6-methoxyphenyl)methyl]-3(R)-piperidinyl]-1,4,6,7-tetrahydro-3-(6-phenyl-3-pyridinyl)-5H-pyrazolo[4,3-c]pyridine-5-carboxamide], the IC50 fell in the range of 101 to 1000 nM. `Cc1cccc(C)c1CN1CC[C@@H](NC(=O)N2CCc3[nH]nc(-c4ccc(-c5ccccc5)nc4)c3C2)C1` [Compound 139, N-[1-[(2,6-dimethylphenyl)-methyl]-3(R)-pyrrolidinyl]-1,4,6,7-tetrahydro-3-(6-phenyl-3-pyridinyl)-5H-pyrazolo[4,3-c]pyridine-5-carboxamide] displayed an IC50 of 101 to 1000 nM. Turning to `Cn1ncc2cc(-c3n[nH]c4c3CN(C(=O)NC3CCC5CCC3N5Cc3ccccc3F)CC4)ccc21` (stereo not drawn) [Compound 140, N-[8-[(2-fluorophenyl)methyl]-8-azabicyclo[3.2.1]oct-2-yl]-1,4,6,7-tetrahydro-3-(1-methyl-1H-indazol-5-yl)-5H-pyrazolo[4,3-c]pyridine-5-carboxamide], the IC50 is < 20 nM. For `Cc1nc2cc(-c3n[nH]c4c3CN(C(=O)N[C@@H]3CCCN(Cc5cccc6cnccc56)C3)CC4)ccc2o1` [Compound 142, 1,4,6,7-tetrahydro-N-[1-(5-isoquinolinylmethyl)-3(R)-pipendinyl]-3-(2-methyl-5-benzoxazolyl)-5H-pyrazolo[4,3-c]pyridine-5-carboxamide], the IC50 was 101 to 1000 nM. With `Cc1nc2cc(-c3n[nH]c4c3CN(C(=O)N[C@@H]3CCCN(Cc5ccnc6ccccc56)C3)CC4)ccc2o1` [Compound 144, 1,4,6,7-tetrahydro-3-(2-methyl-5-benzoxazolyl)-N-[1-(4-quinolinylmethyl)-3(R)-piperidinyl]-5H-pyrazolo[4,3-c]pyridine-5-carboxamide], the 50% inhibitory concentration (IC50) lay within 101 to 1000 nM.

Source of the values: patent US9242981B2, “Fused pyrazole derivatives as novel ERK inhibitors” (Merck Sharp & Dohme Corp., priority 2010, dated 2016).
